Assay results as given in patent US9458479B2, “Method for late introduction of the (8R) hydroxyl group carbapenem β-lactam antibiotic synthesis” (THE JOHNS HOPKINS UNIVERSITY, priority 2009, dated 2016).

Experiments:
[1] = test system: ThnG; assay: In vitro reaction of carbapenam/ems with purified ThnG, HPLC and ESI-MS analysis of products; format: biochemical, Streptomyces cattleya; details: 1 mM substrate, 0.2 mg/mL ThnG, 25 mM MOPS pH 7.0, ferrous ammonium sulfate, α-KG, ascorbate, room temperature 1 h
Experimental: (§1) Thienamycin biosynthetic cluster genes thnG and thnQ were cloned from genomic DNA and inserted into pET29b each bearing a C-terminal His6-tag. The recombinant proteins were overproduced in E. coli Rosetta2(DE3) and purified by Ni-NTA affinity chromatography. In vitro reactions in MOPS, pH 7.0, containing Fe(NH4)2(SO4)2, α-KG, ascorbate, the subject carbapenam/em, and either ThnG or ThnQ were incubated and analyzed by HPLC for the formation of new product(s). Salowe, S. P., et al., Biochemistry 29(27):6499-6508 (1990); Decristoforo, G. Anal. Chim. Acta 163(SEP):25-33 (1984). […] The products were immediately identifiable as carbapenems by their unique chromophores (λmax=290-320 nm). ThnQ produced a single new product more polar than 5, while ThnG produced two products, one with a shorter retention time and one with a longer retention time than that of 5.
For routine HPLC analysis, reactions were assembled containing 25 mM MOPS, pH 7.0, 1 mM ascorbate, 0.08 mM ferrous ammonium sulfate, 8 mM α-ketoglutarate (α-KG), 1 mM of the substrate and 0.2 mg/mL ThnG or ThnQ. Salowe, S. P., et al., Biochemistry 29(27):6499-6508 (1990). After addition of the protein, the reactions were incubated at room temperature for 1 h. The protein was then removed with an Amicon Ultra 10,000 MWCO filter. For ESI mass spectroscopic analysis of HPLC purified enzymatic products, reactions were assembled under similar conditions except containing 2 mM substrate, 2 mM ascorbate and 0.6 mg/mL ThnG or ThnQ.
(§2) HPLC conditions: Phenomenex Luna 5 μC18(2) analytical column; Method 1, A=50 mM ammonium formate pH 8.5, B=MeOH, t=0 min 0% B, t=10 min 35% B, t=13 min 35% B, t=15 min 0% B, t=20 min 0% B. Method 2, A=50 mM ammonium formate pH 8.5, B=MeOH, t=0 min 0% B, t=10 min 33% B, t=18 min 33% B, t=20 min 0% B, t=25 min 0% B. λ=300 nm (carbapenem) or 220 nm (carbapenam). Decristoforo, G., Anal. Chim. Acta 163:25-33 (1984). Purified carbapenems were collected from the HPLC and analyzed directly by ESI mass spectrometry in the negative ion mode.

[2] = test system: ThnQ; assay: In vitro reaction of carbapenam/ems with purified ThnQ, HPLC and ESI-MS analysis of products; format: biochemical, Streptomyces cattleya; details: 1 mM substrate, 0.2 mg/mL ThnQ, 25 mM MOPS pH 7.0, ferrous ammonium sulfate, α-KG, ascorbate, room temperature 1 h
Experimental: as §1, with “5. […]” for “5.”
as §2, with “Decristoforo, G., Anal. Chim. Acta 163:25-33 (1984).” left out

SMILES | product(s) of the ThnG-catalyzed reaction (HPLC, ESI-MS) [1] | product(s) of the ThnQ-catalyzed reaction (HPLC, ESI-MS) [2]
CCC1C(=O)N2C(C(=O)O)=C([S+]([O-])CCNC(C)=O)CC12 (stereo not drawn) [compound 8, PS-5 sulfoxide] | unable to catalyze desaturation | –
CCC1C(=O)N2C(C(=O)O)=C(S/C=C/NC(C)=O)CC12 (stereo not drawn) [compound 7, PS-7] | able to convert 7 to its sulfoxide | N-acetyl dehydrothienamycin (3)
CC(=O)NCCSC1=C(C(=O)O)N2C(=O)[C@H]([C@@H](C)O)[C@H]2C1 [compound 2, N-acetyl thienamycin] | N-acetyl dehydrothienamycin (3) | –
CC[C@H]1C(=O)N2C(C(=O)O)=C(SCCNC(C)=O)C[C@H]12 [compound 5, PS-5] | identified as PS-7 (7) and PS-7 sulfoxide 9 | stereospecifically hydroxylated PS-5 (5) to produce 2
